In patent US10570168B2, “2′ and/or 5′ amino-acid ester phosphoramidate 3′-deoxy adenosine derivatives as anti- cancer compounds” (NuCana plc, priority 2014, dated 2020):

Assays:
Format in all cases: cell-based
[1] = test system: CCRFCEM; assay: Solid tumour and haematological malignancy assay (CellTiterGlo); details: Homo sapiens, CCRF-CEM, 72 h; for Emax: read-out: MI %; for IC50: read-out: IC50 (absolute IC50)
Description: (§1) In vitro viability assay were performed to assess the effects of compounds on cell viability in selected cell lines over 72 hr using the CellTiterGlo (CTG, Promega-G7573) assay. […] Cell viability assay using CellTiterGlo in 96-well plate were performed. Compound treatment 72 hrs, standard growth conditions, duplicates. Compounds were dissolved to 40 mM with thawed 100%. […] After compounds were dissolved in media, media containing compounds were warmed to 37° C. in incubator and then compounds in media were added to cell plates ([…]) in duplicates. […] All compound solubilities were checked and recorded again, then the plates were transferred to CO2 tissue culture incubator immediately and incubated for 3 days. DMSO final concentration is 0.5%.

[2] = test system: HEL92.1.7; assay: as above; details: Homo sapiens, HEL 92.1.7, 72 h; for Emax: read-out: MI %; for IC50: read-out: IC50 (absolute IC50)
Description: as §1

[3] = test system: HL-60; assay: as above; details: Homo sapiens, HL-60, 72 h; for Emax: read-out: MI %; for IC50: read-out: IC50 (absolute IC50)
Description: as §1

[4] = test system: HT29; assay: as above; details: Homo sapiens, HT-29, 72 h; for Emax: read-out: MI %; for IC50: read-out: IC50 (absolute IC50)
Description: as §1

[5] = test system: HepG2; assay: as above; details: Homo sapiens, HepG2, 72 h; for Emax: read-out: MI %; for IC50: read-out: IC50 (absolute IC50)
Description: as §1

[6] = test system: K562; assay: as above; details: Homo sapiens, K562, 72 h; for Emax: read-out: MI %; for IC50: read-out: IC50 (absolute IC50)
Description: as §1

[7] = test system: KG-1; assay: as above; details: Homo sapiens, KG-1, 72 h; for Emax: read-out: MI %; for IC50: read-out: IC50 (absolute IC50)
Description: as §1

[8] = test system: MCF7; assay: as above; details: Homo sapiens, MCF7, 72 h; for Emax: read-out: MI %; for IC50: read-out: IC50 (absolute IC50)
Description: as §1

[9] = test system: MiaPaCa-2; assay: as above; details: Homo sapiens, MIA PaCa-2, 72 h; for Emax: read-out: MI %; for IC50: read-out: IC50 (absolute IC50)
Description: as §1

[10] = test system: BxPC-3-Luc; assay: as above; details: 72 h, read-out: EC50 (absolute EC50)
Description: (§2) In vitro viability assay were performed to assess the effects of compounds on cell viability in selected cell lines over 72 hr using the CellTiterGlo (CTG, Promega-G7573) assay. The tests were performed in duplicates with treatment of compounds at 9 points, 3.16 folds titration in 96 well plates over ˜72 hr. The compound starting concentrations were […]. Cell viability assay using CellTiterGlo in 96-well plate were performed. Compound treatment 72 hrs, standard growth conditions, duplicates. Compounds were dissolved to 40 mM with thawed […]. Compounds were serially diluted at 3.16 fold in thawed DMSO, and warmed to 37° C. before being dissolved in media ([…]). After compounds were dissolved in media, media containing compounds were warmed to 37° C. in incubator and then compounds in media were added to cell plates ([…]) in duplicates. The compounds' final concentrations were from […] to 19.9 nM. All compound solubilities were checked and recorded again, then the plates were transferred to CO2 tissue culture incubator immediately and incubated for 3 days. DMSO final concentration is 0.5%.

[11] = test system: HS445; assay: as above; details: Hs 445, 72 h
Description: as §2

[12] = test system: MOLT-4; assay: as above; details: Homo sapiens, MOLT-4, 72 h
Description: as §2

[13] = test system: MV4-11; assay: as above; details: Homo sapiens, MV4-11, 72 h
Description: as §2

[14] = test system: NCI-H929; assay: as above; details: Homo sapiens, NCI-H929, 72 h
Description: as §2

[15] = test system: RL; assay: as above; details: Homo sapiens, 72 h
Description: as §2

[16] = test system: RPMI-8226; assay: as above; details: Homo sapiens, RPMI-8226, 72 h
Description: as §2

[17] = test system: SW620; assay: as above; details: Homo sapiens, SW-620, 72 h
Description: as §2

[18] = test system: THP-1; assay: as above; details: Homo sapiens, THP-1, 72 h
Description: as §2

[19] = test system: Z138; assay: as above; details: Homo sapiens, Z-138, 72 h
Description: as §2

[20] = test system: KG1a cells; assay: Annexin V/propidium iodide in vitro apoptosis assay (LD50); details: 72 h
Description: The KG1a cell line was maintained in RPMI medium (Invitrogen, Paisley, UK) supplemented with 100 units/ml penicillin, 100 μg/ml streptomycin and 20% foetal calf serum. Cells were subsequently aliquoted (10^5 cells/100 μl) into 96-well plates and were incubated at 37° C. in a humidified 5% carbon dioxide atmosphere for 72 h in the presence of nucleoside analogues and their respective proTides at concentrations that were experimentally determined for each series of compounds. In addition, control cultures were carried out to which no drug was added. Cells were subsequently harvested by centrifugation and were analyzed by flow cytometry using the Annexin V assay.
Cultured cells were harvested by centrifugation and then resuspended in 195 μl of calcium-rich buffer. Subsequently, 5 μl of Annexin V (Caltag Medsystems, Botolph Claydon, UK) was added to the cell suspension and cells were incubated in the dark for 10 mins prior to washing. Cells were finally resuspended in 190 μl of calcium-rich buffer together with 10 μl of propidium iodide. Apoptosis was assessed by dual-colour immunofluorescent flow cytometry as described previously.
The data obtained in these experiments were evaluated using one way ANOVA. […] LD50 values were calculated from the non-linear regression and line of best-fit analysis of the sigmoidal dose-response curves. […]

[21] = test system: leukaemic stem cell (LSC) compartment within the KG1a cell line; assay: Immunophenotypic identification of the leukaemic stem cell compartment; details: 72 h, for compound A at 1 mM and above
Description: KG1a cells were cultured for 72 h in the presence of a wide range of concentrations of each compound assayed. Cells were then harvested and labelled with a cocktail of anti-lineage antibodies (PE-cy7), anti-CD34 (FITC), anti-CD38 (PE) and anti-CD123 (PERCP cy5). The sub-population expressing a LSC phenotype were subsequently identified and were expressed as a percentage of all viable cells left in the culture. The percentages of stem cells remaining were then plotted on a dose-response graph and the effects of the compounds were compared with each other, and with the parent nucleoside.
The data obtained in these experiments were evaluated using one way ANOVA. All data was confirmed as Gaussian or a Gaussian approximation using the omnibus K2 test. LD50 values were calculated from the non-linear regression and line of best-fit analysis of the sigmoidal dose-response curves. All statistical analyses were performed using Graphpad Prism 6.0 software (Graphpad Software Inc., San Diego, Calif.).

CC(NP(=O)(OC[C@@H]1C[C@@H](O)[C@H](n2cnc3c(N)nc(Cl)nc32)O1)Oc1cccc2ccccc12)C(=O)OCc1ccccc1 (stereo in doubt) [S, (2R)-benzyl 2-((((2S,4R,5R)-5-(6-amino-2-chloro-9H-purin-9-yl)-4-hydroxytetrahydrofuran-2-yl)methoxy)(naphthalen-1-yloxy)phosphorylamino)propanoate]
EC50 ([1]; read-out: EC50 (absolute EC50)): 5 to 15 µM
Emax [1]: 100%
EC50 ([2]; read-out: EC50 (absolute EC50)): 5 to 15 µM
Emax [2]: 100%
EC50 ([3]; read-out: EC50 (absolute EC50)): 5 to 15 µM
Emax [3]: 102%
EC50 ([4]; read-out: EC50 (absolute EC50)): 15 to 100 µM
Emax [4]: 88.1%
EC50 ([5]; read-out: EC50 (absolute EC50)): 15 to 100 µM
Emax [5]: 84.6%
EC50 ([6]; read-out: EC50 (absolute EC50)): 15 to 100 µM
Emax [6]: 101%
EC50 ([7]; read-out: EC50 (absolute EC50)): 15 to 100 µM
Emax [7]: 99%
EC50 ([8]; read-out: EC50 (absolute EC50)): 15 to 100 µM
Emax [8]: 101%
EC50 ([9]; read-out: EC50 (absolute EC50)): 15 to 100 µM
Emax [9]: 98.2%
EC50 [10]: 15 to 100 µM
EC50 ([11]; read-out: EC50 (absolute EC50)): 15 to 100 µM
Emax ([11]; read-out: MI %): 106%
EC50 ([12]; read-out: EC50 (absolute EC50)): 5 to 15 µM
Emax ([12]; read-out: MI %): 100%
EC50 ([13]; read-out: EC50 (absolute EC50)): 5 to 15 µM
Emax ([13]; read-out: MI %): 101%
EC50 ([14]; read-out: EC50 (absolute EC50)): 5 to 15 µM
Emax ([14]; read-out: MI %): 102%
EC50 ([15]; read-out: EC50 (absolute EC50)): 5 to 15 µM
Emax ([15]; read-out: MI %): 100%
EC50 ([16]; read-out: EC50 (absolute EC50)): 15 to 100 µM
Emax ([16]; read-out: MI %): 99.6%
EC50 ([17]; read-out: EC50 (absolute EC50)): 15 to 100 µM
Emax ([17]; read-out: MI %): 92.1%
EC50 ([18]; read-out: EC50 (absolute EC50)): 15 to 100 µM
Emax ([18]; read-out: MI %): 97%
EC50 ([19]; read-out: EC50 (absolute EC50)): 15 to 100 µM
Emax ([19]; read-out: MI %): 90.2%

Nc1nc(F)nc2c1ncn2[C@@H]1O[C@H](CO)C[C@H]1O [2-F-Cordycepin, 3′deoxy-2-fluoroadenosine, reference compound]
IC50 [1]: 15 to 100 µM
Emax [1]: 101%
IC50 [2]: 5 to 15 µM
Emax [2]: 99%
IC50 [3]: 5 to 15 µM
Emax [3]: 96%
IC50 [4]: 15 to 100 µM
Emax [4]: 73%
IC50 [5]: 15 to 100 µM
Emax [5]: 82%
IC50 [6]: 15 to 100 µM
Emax [6]: 97%
IC50 [7]: 5 to 15 µM
Emax [7]: 99%
IC50 [8]: 15 to 100 µM
Emax [8]: 97%
IC50 [9]: 15 to 100 µM
Emax [9]: 100%
in vitro drug sensitivity / potency (LD50 comparison, FIG. 1) [20]: significantly more potent than Cordycepin

CCCCCCOC(=O)[C@H](C)NP(=O)(OC[C@@H]1C[C@@H](O)[C@H](n2cnc3c(N)nc(F)nc32)O1)Oc1ccccc1 (stereo partly drawn) [R, (2S)-hexyl 2-(((((2S,4R,5R)-5-(6-amino-2-fluoro-9H-purin-9-yl)-4-hydroxytetrahydrofuran-2-yl)methoxy)(phenoxy)phosphoryl)amino)propanoate]
IC50 [1]: 0.1 to 5 µM
Emax [1]: 100%
IC50 [2]: 0.1 to 5 µM
Emax [2]: 99%
IC50 [3]: 0.1 to 5 µM
Emax [3]: 100%
IC50 [4]: 15 to 100 µM
Emax [4]: 92%
IC50 [5]: 5 to 15 µM
Emax [5]: 82%
IC50 [6]: 5 to 15 µM
Emax [6]: 96%
IC50 [7]: 0.1 to 5 µM
Emax [7]: 96%
IC50 [8]: 0.1 to 5 µM
Emax [8]: 87%
IC50 [9]: 5 to 15 µM
Emax [9]: 98%
LSC targeting compared with the parent nucleoside [21]: significantly improved when compared with the parental nucleoside
